Laboratory results as given in US20260201008A1, “SECRETIN-DERIVED GLP1R SELECTIVE AGONISTS” (GUBRA A/S, priority 2023, published 2026).
Like-named read-outs stand apart in the source and are kept apart here. Numbered stars: 1 amine (or outer) side, 2 acyl side, 3 side chain; on linkers, the order of the positions; unused ones are H or OH. Square brackets hold non-standard residues; d marks the D form. Side chains are listed from the residue outwards. Peptide text beside a SMILES is read from it. * marks the point of attachment. C20 diacid = O=C(O)CCCCCCCCCCCCCCCCCCC(=O)*; γGlu = O=C(O)[C@H](CCC(=O)[*:2])N[*:1]; AEEA = NCCOCCOCC(=O)O; Aib = CC(C)(N)C(=O)O

Assays:
[1] = target: GLP1R (Homo sapiens, UniProt P43220); experiment: hGLP1R potency, cAMP accumulation in CHO-K1 cells stably overexpressing hGLP1R; type: cell-based; set-up: host or cells: CHO-K1; settings: for EC50: cAMP accumulation, CHO-K1 cells overexpressing hGLP1R; for SCTR EC50/GLP1R EC50 ratio: selectivity for hGLP1R over hSCTR, cAMP accumulation in CHO-K1 cells; for Selectivity: SCTR EC50/GLP1R EC50 ratio
Summary of the method: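 In the presence of 0.5 mM IBMX, compounds stimulated the cells for 30 minutes at room temperature. Accumulated cAMP was then detected by TR-FRET, with EC50 values fitted by variable-slope nonlinear regression.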

[2] = Turbidity of crude library peptides (absorbance at 600 nm); type: physicochemical; settings: Physical stability of peptides
Summary of the method: (§1)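 Fibril formation is scored as average ThT fluorescence from duplicate samples monitored for 72 h at 40° C with shaking stress. Turbidity is the absorbance at 600 nm taken before heating. Peptide concentration was 267 μM at pH 4.0 or pH 7.0.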

[3] = Fibril formation of crude library peptides (Thioflavin T); type: physicochemical; set-up: key: average ThT fluorescence emission at 480 nm (ex 450 nm), raw units; settings: Physical stability of peptides
Summary of the method: as §1

[4] = target: SCTR (Homo sapiens, UniProt P47872); experiment: hSCTR potency, cAMP accumulation in CHO-K1 cells stably overexpressing hSCTR; type: cell-based; set-up: alternatively Euroscreen ES-712-AF; FAST-0161L; host or cells: CHO-K1; settings: cAMP accumulation, CHO-K1 cells overexpressing hSCTR
Summary of the method: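 In this Gs cAMP assay, stably transfected CHO-K1 hSCTR cells were stimulated at room temperature for 30 min in IBMX-containing buffer. Time-resolved FRET gave the signal. Replicates were increased when the top concentration changed or EC50 values differed 5-fold.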

[5] = read-out: hGLP1R pEC50 (converted)
[6] = read-out: hSCTR pEC50 (converted)
[7] = read-out: pEC50 hGLPR1 (converted)
[8] = read-out: pEC50 hSCTR (converted)

Chain of SCTR (P47872 23-440): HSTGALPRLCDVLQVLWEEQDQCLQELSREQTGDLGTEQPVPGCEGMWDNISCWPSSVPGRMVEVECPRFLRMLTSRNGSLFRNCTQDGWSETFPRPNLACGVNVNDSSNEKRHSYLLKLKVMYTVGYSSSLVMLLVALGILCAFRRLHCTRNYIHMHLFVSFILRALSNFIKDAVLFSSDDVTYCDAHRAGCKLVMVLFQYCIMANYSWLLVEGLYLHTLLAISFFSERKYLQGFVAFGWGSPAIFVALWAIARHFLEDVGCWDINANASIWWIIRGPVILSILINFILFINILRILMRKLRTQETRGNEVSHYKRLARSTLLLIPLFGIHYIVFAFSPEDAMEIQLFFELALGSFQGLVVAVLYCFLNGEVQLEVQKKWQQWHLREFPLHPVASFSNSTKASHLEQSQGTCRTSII
Chain of GLP1R (P43220 24-463): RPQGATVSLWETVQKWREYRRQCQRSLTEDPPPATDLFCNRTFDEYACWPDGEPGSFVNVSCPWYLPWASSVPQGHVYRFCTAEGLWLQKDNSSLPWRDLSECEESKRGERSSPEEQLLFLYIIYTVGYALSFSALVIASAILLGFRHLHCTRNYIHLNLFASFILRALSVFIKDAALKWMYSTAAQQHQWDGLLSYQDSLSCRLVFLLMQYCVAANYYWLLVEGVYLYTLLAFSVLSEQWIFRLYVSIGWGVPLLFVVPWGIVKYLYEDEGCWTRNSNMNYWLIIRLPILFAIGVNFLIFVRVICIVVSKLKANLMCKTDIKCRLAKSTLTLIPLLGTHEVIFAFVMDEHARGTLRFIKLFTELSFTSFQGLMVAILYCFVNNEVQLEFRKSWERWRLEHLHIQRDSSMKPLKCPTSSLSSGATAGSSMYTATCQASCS

| SMILES | EC50 [1, 5] | SCTR EC50/GLP1R EC50 ratio [1] | Turbidity (pH 7) [2] | Fibril formation [3] | EC50 [4, 6] | Selectivity [1] | EC50 [1, 7] | EC50 [4, 8] |
| --- | --- | --- | --- | --- | --- | --- | --- | --- |
| CC[C@H](C)[C@H](NC(=O)[C@H](Cc1ccccc1)NC(=O)[C@H](CCCNC(=N)N)NC(=O)[C@H](CCC(N)=O)NC(=O)[C@H](CC(C)C)NC(=O)[C@H](C)NC(=O)[C@H](C)NC(=O)CNC(=O)[C@H](CCC(=O)O)NC(=O)[C@H](CC(C)C)NC(=O)[C@H](CC(C)C)NC(=O)[C@H](CCC(=O)O)NC(=O)[C@H](CO)NC(=O)[C@@H](NC(=O)[C@H](CC(=O)O)NC(=O)[C@H](CO)NC(=O)[C@@H](NC(=O)[C@H](Cc1ccccc1)NC(=O)[C@@H](NC(=O)CNC(=O)[C@H](CCC(=O)O)NC(=O)C(C)(C)NC(=O)[C@@H](N)Cc1c[nH]cn1)[C@@H](C)O)[C@@H](C)O)C(C)C)C(=O)N[C@@H](CCC(N)=O)C(=O)N[C@@H](Cc1c[nH]c2ccccc12)C(=O)N[C@@H](CC(C)C)C(=O)N[C@H](C(N)=O)C(C)C [compound 180] (H-H[Aib]EGTFTSDVSELLEGAALQRFIQWLV-NH2) | 0.0158 nM | 11144 | 0.12 | 53478 | 200 nM | – | – | – |
| CC(C)C[C@H](NC(=O)[C@H](Cc1ccccc1)NC(=O)[C@H](CCCNC(=N)N)NC(=O)[C@H](CCC(N)=O)NC(=O)[C@H](CCC(=O)O)NC(=O)C(C)(C)NC(=O)[C@H](C)NC(=O)[C@H](CCC(=O)O)NC(=O)[C@H](CCC(=O)O)NC(=O)[C@H](CCCCNC(=O)COCCOCCNC(=O)COCCOCCNC(=O)CC[C@H](NC(=O)CCCCCCCCCCCCCCCCCCC(=O)O)C(=O)O)NC(=O)[C@H](CC(C)C)NC(=O)[C@H](Cc1ccc(O)cc1)NC(=O)[C@H](CO)NC(=O)[C@@H](NC(=O)[C@H](CC(=O)O)NC(=O)[C@H](CO)NC(=O)[C@@H](NC(=O)[C@H](Cc1ccccc1)NC(=O)[C@@H](NC(=O)CNC(=O)[C@H](CCC(=O)O)NC(=O)C(C)(C)NC(=O)[C@@H](N)Cc1c[nH]cn1)[C@@H](C)O)[C@@H](C)O)C(C)C)C(=O)N[C@@H](CCC(=O)O)C(=O)N[C@@H](Cc1c[nH]cn1)C(=O)N[C@@H](CC(C)C)C(=O)N[C@H](C(N)=O)C(C)C [compound 150] (H-H[Aib]EGTFTSDVSYLK([AEEA-AEEA-γGlu-C20 diacid])EEA[Aib]EQRFLEHLV-NH2) | 0.00501 nM | 693266 | 0.08 | 2766 | 3160 nM | – | – | – |
| CC(C)C[C@H](NC(=O)[C@H](CCC(=O)O)NC(=O)[C@H](CCCCNC(=O)COCCOCCNC(=O)COCCOCCNC(=O)CC[C@H](NC(=O)CCCCCCCCCCCCCCCCCCC(=O)O)C(=O)O)NC(=O)[C@H](CC(C)C)NC(=O)[C@@H](NC(=O)[C@H](CO)NC(=O)[C@@H](NC(=O)[C@H](CC(=O)O)NC(=O)[C@H](CO)NC(=O)[C@@H](NC(=O)[C@H](Cc1ccccc1)NC(=O)[C@@H](NC(=O)CNC(=O)[C@H](CCC(=O)O)NC(=O)C(C)(C)NC(=O)[C@@H](N)Cc1c[nH]cn1)[C@@H](C)O)[C@@H](C)O)C(C)C)[C@@H](C)O)C(=O)N[C@@H](C)C(=O)N[C@@H](C)C(=O)N[C@H](C(=O)N[C@@H](CCC(N)=O)C(=O)N[C@@H](CCCNC(=N)N)C(=O)N[C@@H](Cc1ccccc1)C(=O)N[C@@H](CC(C)C)C(=O)N[C@@H](CCC(=O)O)C(=O)N[C@@H](Cc1c[nH]cn1)C(=O)N[C@@H](CC(C)C)C(=O)N[C@H](C(N)=O)C(C)C)[C@@H](C)O [compound 67] (H-H[Aib]EGTFTSDVSTLK([AEEA-AEEA-γGlu-C20 diacid])ELAATQRFLEHLV-NH2) | – | – | 0.08 | 5041 | – | 7155 | 0.0501 nM | 398 nM |
| CC(C)C[C@H](NC(=O)[C@H](CCC(=O)O)NC(=O)[C@H](CCCCNC(=O)COCCOCCNC(=O)COCCOCCNC(=O)CC[C@H](NC(=O)CCCCCCCCCCCCCCCCCCC(=O)O)C(=O)O)NC(=O)[C@H](CC(C)C)NC(=O)[C@H](CCC(=O)O)NC(=O)[C@H](CO)NC(=O)[C@@H](NC(=O)[C@H](CC(=O)O)NC(=O)[C@H](CO)NC(=O)[C@@H](NC(=O)[C@H](Cc1ccccc1)NC(=O)[C@@H](NC(=O)CNC(=O)[C@H](CCC(=O)O)NC(=O)C(C)(C)NC(=O)[C@@H](N)Cc1c[nH]cn1)[C@@H](C)O)[C@@H](C)O)C(C)C)C(=O)N[C@@H](C)C(=O)N[C@@H](C)C(=O)N[C@H](C(=O)N[C@@H](CCC(N)=O)C(=O)N[C@@H](CCCNC(=N)N)C(=O)N[C@@H](Cc1ccccc1)C(=O)N[C@@H](CC(C)C)C(=O)N[C@@H](CCC(=O)O)C(=O)N[C@@H](Cc1c[nH]cn1)C(=O)N[C@@H](CC(C)C)C(=O)N[C@H](C(N)=O)C(C)C)[C@@H](C)O [compound 80] (H-H[Aib]EGTFTSDVSELK([AEEA-AEEA-γGlu-C20 diacid])ELAATQRFLEHLV-NH2) | – | – | 0.08 | 6999 | – | 33512 | 0.02 nM | 794 nM |
| CC(C)C[C@H](NC(=O)[C@H](Cc1ccccc1)NC(=O)[C@H](CCCNC(=N)N)NC(=O)[C@H](CCC(N)=O)NC(=O)[C@H](CC(C)C)NC(=O)C(C)(C)NC(=O)[C@H](C)NC(=O)[C@H](CCC(=O)O)NC(=O)[C@H](CCC(=O)O)NC(=O)[C@H](CCCCNC(=O)COCCOCCNC(=O)COCCOCCNC(=O)CC[C@H](NC(=O)CCCCCCCCCCCCCCCCCCC(=O)O)C(=O)O)NC(=O)[C@H](CC(C)C)NC(=O)[C@H](Cc1ccc(O)cc1)NC(=O)[C@H](CO)NC(=O)[C@@H](NC(=O)[C@H](CC(=O)O)NC(=O)[C@H](CO)NC(=O)[C@@H](NC(=O)[C@H](Cc1ccccc1)NC(=O)[C@@H](NC(=O)CNC(=O)[C@H](Cc1c[nH]cn1)NC(=O)C(C)(C)NC(=O)[C@@H](N)Cc1c[nH]cn1)[C@@H](C)O)[C@@H](C)O)C(C)C)C(=O)N[C@@H](CCC(=O)O)C(=O)N[C@@H](Cc1c[nH]cn1)C(=O)N[C@@H](CC(C)C)C(=O)N[C@H](C(N)=O)C(C)C [compound 171] (H-H[Aib]HGTFTSDVSYLK([AEEA-AEEA-γGlu-C20 diacid])EEA[Aib]LQRFLEHLV-NH2) | 0.158 nM | 209459 | 0.08 | 3473 | 31600 nM | – | – | – |
| CC(C)C[C@H](NC(=O)[C@H](Cc1c[nH]c2ccccc12)NC(=O)[C@H](CCCNC(=N)N)NC(=O)[C@H](CCC(N)=O)NC(=O)[C@H](CC(C)C)NC(=O)C(C)(C)NC(=O)[C@H](C)NC(=O)[C@H](CCC(=O)O)NC(=O)[C@H](CCC(=O)O)NC(=O)[C@H](CCCCNC(=O)COCCOCCNC(=O)COCCOCCNC(=O)CC[C@H](NC(=O)CCCCCCCCCCCCCCCCCCC(=O)O)C(=O)O)NC(=O)[C@H](CC(C)C)NC(=O)[C@H](Cc1ccc(O)cc1)NC(=O)[C@H](CO)NC(=O)[C@@H](NC(=O)[C@H](CC(=O)O)NC(=O)[C@H](CO)NC(=O)[C@@H](NC(=O)[C@H](Cc1ccccc1)NC(=O)[C@@H](NC(=O)CNC(=O)[C@H](CCC(=O)O)NC(=O)C(C)(C)NC(=O)[C@@H](N)Cc1c[nH]cn1)[C@@H](C)O)[C@@H](C)O)C(C)C)C(=O)N[C@@H](CCC(=O)O)C(=O)N[C@@H](Cc1c[nH]cn1)C(=O)N[C@@H](CC(C)C)C(=O)N[C@H](C(N)=O)C(C)C [compound 135] (H-H[Aib]EGTFTSDVSYLK([AEEA-AEEA-γGlu-C20 diacid])EEA[Aib]LQRWLEHLV-NH2) | 0.00501 nM | 22241 | 0.09 | 4491 | 126 nM | – | – | – |
| CC(C)C[C@H](NC(=O)[C@H](Cc1ccccc1)NC(=O)[C@H](CCCNC(=N)N)NC(=O)[C@H](CCC(N)=O)NC(=O)[C@H](CCC(=O)O)NC(=O)[C@H](C)NC(=O)[C@H](C)NC(=O)[C@@H](NC(=O)[C@H](CCC(=O)O)NC(=O)[C@H](CCCCNC(=O)COCCOCCNC(=O)COCCOCCNC(=O)CC[C@H](NC(=O)CCCCCCCCCCCCCCCCCCC(=O)O)C(=O)O)NC(=O)[C@H](CC(C)C)NC(=O)[C@H](Cc1ccc(O)cc1)NC(=O)[C@H](CO)NC(=O)[C@@H](NC(=O)[C@H](CC(=O)O)NC(=O)[C@H](CO)NC(=O)[C@@H](NC(=O)[C@H](Cc1ccccc1)NC(=O)[C@@H](NC(=O)CNC(=O)[C@H](CCC(=O)O)NC(=O)C(C)(C)NC(=O)[C@@H](N)Cc1c[nH]cn1)[C@@H](C)O)[C@@H](C)O)C(C)C)[C@@H](C)O)C(=O)N[C@@H](CCC(=O)O)C(=O)N[C@@H](Cc1c[nH]cn1)C(=O)N[C@@H](CC(C)C)C(=O)N[C@H](C(N)=O)C(C)C [compound 69] (H-H[Aib]EGTFTSDVSYLK([AEEA-AEEA-γGlu-C20 diacid])ETAAEQRFLEHLV-NH2) | – | – | 0.08 | 14799 | – | 1030149 | 0.0158 nM | 15800 nM |
